According to ChEMBL document CHEMBL1201862, “PubChem BioAssay data set” (2004):
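Cells were grown in 96-well plates and exposed to each compound for 48 hours at five concentrations; endpoints were interpolated linearly between bracketing concentrations, or set to the highest concentration if not reached. GI50 is the concentration that inhibits growth by half.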 Activity calls are given as the source filed them. Rule as the data show it: active = GI50 up to about 1.1 µM and inactive = higher.

How the values were obtained:
Experiment in all cases: DTP human tumour cell line panel, 48 h
UACC-62 = test system: UACC-62
HOP-92 = test system: HOP-92
SK-MEL-5 = test system: SK-MEL-5
SK-MEL-28 = test system: SK-MEL-28
MDA-MB-435 = test system: MDA-MB-435
CAKI-1 = test system: CAKI-1
MCF7 = test system: MCF7
HT-29 = test system: HT-29
T47D = test system: T47D
M14 = test system: M14
OVCAR-8 = test system: OVCAR-8
MDA-N = test system: MDA-N
A549 = test system: A549
786-0 = test system: 786-0
PC-3 = test system: PC-3
RXF 393 = test system: RXF 393
IGROV-1 = test system: IGROV-1
ACHN = test system: ACHN
OVCAR-3 = test system: OVCAR-3
NCI-H226 = test system: NCI-H226
KM12 = test system: KM12
SK-MEL-2 = test system: SK-MEL-2
COLO 205 = test system: COLO 205
UACC-257 = test system: UACC-257
DU-145 = test system: DU-145
UO-31 = test system: UO-31
HCT-116 = test system: HCT-116
SR = test system: SR
A498 = test system: A498
SF-268 = test system: SF-268
SW-620 = test system: SW-620
NCI-H522 = test system: NCI-H522
NCI/ADR-RES = test system: NCI/ADR-RES
SN12C = test system: SN12C
LOX IMVI = test system: LOX IMVI
BT-549 = test system: BT-549
Malme-3M = test system: Malme-3M
SK-OV-3 = test system: SK-OV-3
SNB-19 = test system: SNB-19
SF-539 = test system: SF-539
EKVX = test system: EKVX
K562 = test system: K562
HCC 2998 = test system: HCC 2998
SF-295 = test system: SF-295
NCI-H23 = test system: NCI-H23
U-251 = test system: U-251
MOLT-4 = test system: MOLT-4
HCT-15 = test system: HCT-15
HOP-62 = test system: HOP-62
SNB-75 = test system: SNB-75
TK-10 = test system: TK-10
NCI-H460 = test system: NCI-H460
MDA-MB-231 = test system: MDA-MB-231
OVCAR-5 = test system: OVCAR-5
OVCAR-4 = test system: OVCAR-4
HL-60 = test system: HL-60
Hs-578T = test system: Hs-578T

CCOP(=O)(OCC)/C(C#N)=C/c1cccn1C(C)C
GI50 (UACC-62): > 100 µM (inactive)
GI50 (HOP-92): > 100 µM (inactive)
GI50 (SK-MEL-5): > 100 µM (inactive)
GI50 (SK-MEL-28): > 100 µM (inactive)
GI50 (MDA-MB-435): > 100 µM (inactive)
GI50 (CAKI-1): > 100 µM (inactive)
GI50 (MCF7): > 10 µM (inactive)
GI50 (HT-29): > 100 µM (inactive)
GI50 (T47D): > 100 µM (inactive)
GI50 (M14): > 100 µM (inactive)
GI50 (OVCAR-8): > 100 µM (inactive)
GI50 (MDA-N): > 100 µM (inactive)
GI50 (A549): > 100 µM (inactive)
GI50 (786-0): > 100 µM (inactive)
GI50 (PC-3): > 100 µM (inactive)
GI50 (RXF 393): > 100 µM (inactive)
GI50 (IGROV-1): > 100 µM (inactive)
GI50 (ACHN): > 100 µM (inactive)
GI50 (OVCAR-3): > 100 µM (inactive)
GI50 (NCI-H226): > 100 µM (inactive)
GI50 (KM12): > 100 µM (inactive)
GI50 (SK-MEL-2): > 100 µM (inactive)
GI50 (COLO 205): > 100 µM (inactive)
GI50 (UACC-257): > 100 µM (inactive)
GI50 (DU-145): > 100 µM (inactive)
GI50 (UO-31): > 100 µM (inactive)
GI50 (HCT-116): > 100 µM (inactive)
GI50 (SR): > 100 µM (inactive)
GI50 (A498): > 100 µM (inactive)
GI50 (SF-268): > 100 µM (inactive)
GI50 (SW-620): > 100 µM (inactive)
GI50 (NCI-H522): > 100 µM (inactive)
GI50 (NCI/ADR-RES): > 100 µM (inactive)
GI50 (SN12C): > 100 µM (inactive)
GI50 (LOX IMVI): > 100 µM (inactive)
GI50 (BT-549): > 100 µM (inactive)
GI50 (Malme-3M): > 100 µM (inactive)
GI50 (SK-OV-3): > 100 µM (inactive)
GI50 (SNB-19): > 100 µM (inactive)
GI50 (SF-539): > 100 µM (inactive)
GI50 (EKVX): > 100 µM (inactive)
GI50 (K562): > 100 µM (inactive)
GI50 (HCC 2998): > 100 µM (inactive)
GI50 (SF-295): > 100 µM (inactive)
GI50 (NCI-H23): > 100 µM (inactive)
GI50 (U-251): > 100 µM (inactive)
GI50 (MOLT-4): > 100 µM (inactive)
GI50 (HCT-15): > 100 µM
GI50 (HOP-62): > 100 µM (inactive)
GI50 (SNB-75): > 100 µM (inactive)
GI50 (TK-10): > 100 µM (inactive)
GI50 (NCI-H460): > 100 µM (inactive)
GI50 (MDA-MB-231): > 100 µM (inactive)
GI50 (OVCAR-5): > 100 µM (inactive)

Cc1ccc(C)c(N2C(=O)C(=O)c3c(C)ccc(C)c32)c1
GI50 (UACC-62): 16.3 µM (inactive)
GI50 (HOP-92): 23.6 µM (inactive)
GI50 (SK-MEL-5): 14.8 µM (inactive)
GI50 (SK-MEL-28): 33.5 µM (inactive)
GI50 (OVCAR-4): 18.8 µM (inactive)
GI50 (MDA-MB-435): 21.1 µM (inactive)
GI50 (CAKI-1): 25.5 µM (inactive)
GI50 (MCF7): 23.4 µM (inactive)
GI50 (HT-29): 20.8 µM (inactive)
GI50 (T47D): 11.6 µM (inactive)
GI50 (M14): 17.1 µM (inactive)
GI50 (OVCAR-8): 23.8 µM (inactive)
GI50 (A549): 25.7 µM (inactive)
GI50 (786-0): 29.3 µM (inactive)
GI50 (PC-3): 23 µM (inactive)
GI50 (RXF 393): 49.7 µM (inactive)
GI50 (IGROV-1): 15.3 µM (inactive)
GI50 (ACHN): 17.1 µM (inactive)
GI50 (HL-60): 35.6 µM (inactive)
GI50 (OVCAR-3): 16.3 µM (inactive)
GI50 (NCI-H226): 27.7 µM (inactive)
GI50 (KM12): 24.5 µM (inactive)
GI50 (SK-MEL-2): 20.6 µM (inactive)
GI50 (COLO 205): 34.9 µM (inactive)
GI50 (UACC-257): 24 µM (inactive)
GI50 (DU-145): 27.7 µM (inactive)
GI50 (UO-31): 22.9 µM (inactive)
GI50 (HCT-116): 16.3 µM (inactive)
GI50 (SR): 15.4 µM (inactive)
GI50 (SF-268): 23.3 µM (inactive)
GI50 (SW-620): 27.7 µM (inactive)
GI50 (NCI-H522): 15.5 µM (inactive)
GI50 (NCI/ADR-RES): 23.6 µM (inactive)
GI50 (SN12C): 26.8 µM (inactive)
GI50 (LOX IMVI): 17.4 µM (inactive)
GI50 (BT-549): 19.5 µM (inactive)
GI50 (Malme-3M): 20.7 µM (inactive)
GI50 (SK-OV-3): 47.9 µM (inactive)
GI50 (SNB-19): 40.6 µM (inactive)
GI50 (SF-539): 16.7 µM (inactive)
GI50 (EKVX): 60.7 µM (inactive)
GI50 (K562): 22 µM (inactive)
GI50 (SF-295): 22.9 µM (inactive)
GI50 (NCI-H23): 21 µM (inactive)
GI50 (U-251): 17.2 µM (inactive)
GI50 (MOLT-4): 22.3 µM (inactive)
GI50 (HCT-15): 14.2 µM
GI50 (HOP-62): 40.6 µM (inactive)
GI50 (SNB-75): 34.9 µM (inactive)
GI50 (TK-10): 28.8 µM (inactive)
GI50 (Hs-578T): 22.4 µM (inactive)
GI50 (NCI-H460): 37.2 µM (inactive)
GI50 (MDA-MB-231): 16.9 µM (inactive)
GI50 (OVCAR-5): 57.1 µM (inactive)
